Reference: US6710048B2, “Pyrazine derivatives as modulators of tyrosine kinases” (Ortho-McNeil Pharmaceutical, Inc., priority 2000, dated 2004)

Target: T1, Casein Kinase 2 (Homo sapiens, UniProt P68400)
T1 construct: purchased New England Biolabs 6010; host or cells: E. coli
Assay: Casein Kinase 2 selectivity assay
Format: biochemical
Conditions: Table 4 kinase selectivity; 10 = approximate value; read-out: IC50, Assay 9 Casein Kinase 2
Description: Assays to test compound inhibition of other kinases were preformed using methods that measure the amount of phosphorylation of a biotinylated peptide substrate. Biotinylated peptide substrates were selected from the literature as appropriate for the enzyme being evaluated. […] Assay conditions vary slightly for each protein kinase, for example, insulin receptor kinase requires 10 mM MnCl2 for activity and Calmodulin-dependent protein kinase requires calmodulin and 2 mM CaCl2. The reaction mixture was dispensed into the wells of a streptavidin coated Flashplate and 1 μl drug stock in 100% DMSO was added to a 100 μl reaction volume resulting in a final concentration of 1% DMSO in the reaction. Enzyme was diluted in 50 mM Tris-HCl pH=8.0, 0.1% BSA and added to each well. The reaction was incubated for one hour at 30° C. in the presence of compound. After one hour the reaction mix was aspirated from the plate and the plate was washed with PBS containing 100 mM EDTA. The plate was read on a scintillation counter to determine ^33P-γ-ATP incorporated into the immobilized peptide. Test compounds were assayed in duplicate at 8 concentrations [100 tM, 10 μM, 1 μM, 100 nM, 10 nM, 1 nM, 100 μM, 10 μM]. A maximum and minimum signal for the assay was determined on each plate. The IC50 was calculated from the dose response curve of the percent inhibition of the maximum signal in the assay according to the formula [max signal−background/test compound signal−background (100)=% inhibition] by graphing the percent inhibition against the log concentration of test compound. Known inhibitor compounds appropriate for the kinase being assayed were also included on each plate.
VEGF-R (vascular endothelial growth factor receptor-2) is a fusion protein containing a polyhistidine tag at the N-terminus followed by amino acids 786-1343 of the rat VEGF-R2 kinase domain (GenBank Accession #U93306). CDK1 (cyclin dependent kinase 1) is isolated from insect cells expressing both the human CDK1 catalytic subunit and its positive regulatory subunit cyclin B (New England Biolabs, Beverly, Mass., Cat. #6020). CDK4 (cyclin dependent kinase 4) contains amino acids 769 to 921 of the mouse […] protein found in the GST-retinoblastoma protein construct (Santa Cruz Biotechnology, Santa Cruz, Calif.; Cat. #SC-4112). Insulin Receptor Kinase consists of residues 941-1313 of the cytoplasmic domain of the beta-subunit of the human insulin receptor (BIOMOL, Plymouth Meeting, Pa., Cat. #SE-195). Protein Kinase A is the catalytic subunit of cAMP dependent protein kinase-A purified from bovine heart (Upstate Biotech, Lake Placid, N.Y., Cat#14-114). PKC (protein kinase-C) is the gamma or beta isoform of the human protein produced in insect cells (BIOMOL, Plymouth Meeting, Pa., Cat. #SE-143). Casein Kinase 1 is a truncation at amino acid 318 of the C-terminal portion of the rat CK1 delta isoform produced in E.coli (New England Biolabs, Beverly, Mass., Cat. #6030). Casein Kinase 2 includes the alpha and beta subunits of the human CK2 protein produced in E.coli (New England Biolabs, Beverly, Mass., Cat. #6010). Calmodulin Kinase (calmodulin-dependent protein kinase 2) is a truncated version of the alpha subunit of the rat protein produced in insect cells (New England Biolabs, Beverly, Mass., Cat. #6060). Glycogen Synthase Kinase-3 is the beta isoform of the rabbit enzyme produced in E. coli (New England Biolabs, Beverly, Mass., Cat. #6040). MAP Kinase is the rat ERK-2 isoform containing a polyhistidine tag at the N-terminus produced in E. coli. and activated by phosphorylation with MEK1 prior to purification (BIOMOL, Plymouth Meeting, Pa., Cat. #SE-137). EGFR (epidermal growth factor receptor) is purified from human A431 cell membranes (Sigma, St. Louis, Mo., Cat.# E3641). PDGF-R (platelet derived growth factor receptor) is a fusion protein containing a polyhistidine tag at the N-terminus followed by nucleotides 1874-3507 of the human PDGF-R beta subunit kinase domain (Accession #M21616). […]

T1 sequence (P68400 whole entry): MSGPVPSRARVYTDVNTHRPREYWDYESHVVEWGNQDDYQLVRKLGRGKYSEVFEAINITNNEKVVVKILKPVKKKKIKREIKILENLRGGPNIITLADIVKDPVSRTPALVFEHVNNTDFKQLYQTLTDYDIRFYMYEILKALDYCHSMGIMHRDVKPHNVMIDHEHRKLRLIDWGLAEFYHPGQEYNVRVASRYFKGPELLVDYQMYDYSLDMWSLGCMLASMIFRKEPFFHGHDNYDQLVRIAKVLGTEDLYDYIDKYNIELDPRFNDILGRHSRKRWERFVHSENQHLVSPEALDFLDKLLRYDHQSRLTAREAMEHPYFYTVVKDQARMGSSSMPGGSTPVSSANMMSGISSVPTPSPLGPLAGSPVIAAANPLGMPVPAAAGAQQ
T1 sequence (P67870 whole entry partner): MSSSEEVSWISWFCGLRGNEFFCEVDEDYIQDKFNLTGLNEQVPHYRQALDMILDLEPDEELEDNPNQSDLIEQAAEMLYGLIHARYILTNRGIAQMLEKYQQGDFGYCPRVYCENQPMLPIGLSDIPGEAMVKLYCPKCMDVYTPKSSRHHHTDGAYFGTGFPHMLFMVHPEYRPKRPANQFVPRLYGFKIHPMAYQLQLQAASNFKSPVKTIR

`OCCCNc1cncc(-c2cncc(Nc3cccc(Cl)c3)n2)c1` [Cmd 4] and `OCCCCNc1cncc(-c2cncc(Nc3cccc(Cl)c3)n2)c1` [Cmd 32] cannot be ordered by IC50: > 100 µM for the first, > 100 µM for the second.

`Clc1cccc(Nc2cncc(-c3cncc(NCCCc4cccnc4)c3)n2)c1` [Cmd 72] and `Clc1cccc(Nc2cncc(-c3cncc(NCCCc4ccncc4)c3)n2)c1` [Cmd 71] cannot be ordered by IC50: > 100 µM for the first, > 100 µM for the second.

`Clc1cccc(Nc2cncc(-c3cncc(NCCCn4cccn4)c3)n2)c1` [Cmd 75] and `Clc1cccc(Nc2cncc(-c3cncc(NCCCn4cncn4)c3)n2)c1` [Cmd 76] are within 1.5-fold of each other in IC50: 8.1 µM for the first, 7.2 µM for the second.

`CN(C)CCCNc1cncc(-c2cncc(Nc3cccc(Cl)c3)n2)c1` [Cmd 35] and `CN(C)CCNc1cncc(-c2cncc(Nc3cccc(Cl)c3)n2)c1` [Cmd 33, N′-[5-[6-[(3-chlorophenyl)amino]pyrazinyl]-3-pyridinyl]-N^2,N^2-dimethyl-1,2-ethanediamine] cannot be ordered by IC50: > 100 µM for the first, > 100 µM for the second.

First: O=C(NCCCO)c1cncc(-c2cncc(Nc3cccc(Cl)c3)n2)c1 [Cmd 39]
Second: Clc1cccc(Nc2cncc(-c3cncc(NCCCN4CCCCC4)c3)n2)c1 [Cmd 73]
The IC50 of the first is 1.6-fold higher: ~10 µM for the first, 6.35 µM for the second. The second is the more potent here.
